Our source for the IC50 values is patent US8623859B2, “Bradykinin B1 antagonists” (Evotec AG, priority 2008, dated 2014).

Where a name gives a salt, the structure may show the parent alone. Some results are limits rather than exact numbers.

This assay concerns the target T1, human B1 (Homo sapiens, UniProt P46663).
T1 construct: host or cells: CHO-K1
T1 sequence (P46663 1-353): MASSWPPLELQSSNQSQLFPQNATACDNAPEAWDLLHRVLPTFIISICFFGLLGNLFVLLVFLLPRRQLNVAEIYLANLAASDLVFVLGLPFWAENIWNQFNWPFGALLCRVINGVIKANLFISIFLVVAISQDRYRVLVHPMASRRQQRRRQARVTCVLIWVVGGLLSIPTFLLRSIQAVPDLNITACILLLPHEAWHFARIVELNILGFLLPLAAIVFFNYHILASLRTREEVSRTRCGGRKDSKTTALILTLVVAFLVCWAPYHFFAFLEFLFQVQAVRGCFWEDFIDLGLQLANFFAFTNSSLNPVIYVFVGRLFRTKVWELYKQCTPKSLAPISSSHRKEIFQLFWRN
Kind of assay: Calcium flux assay for Bradykinin B1 antagonist, CHO-K1 cell line expressing human B1. It counts as cell-based. To be noted: CHO-K1 cells expressing human B1, agonist Lys-(Des-Arg)-Bradykinin, read-out: Potency (IC50 value against human B1). In outline: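 Inhibition of B1 agonist-evoked intracellular Ca2+ rise was followed by continuous fluorescence at 538 nm, with integrated, background-normalized signals plotted versus log compound concentration. Test compounds (eight 10-fold dilutions, triplicate, 1% DMSO final) were added 30 min at 25° C beforehand to Fluo-4AM-loaded human B1 CHO-K1 cells in pH 7.4 assay buffer.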
(Calcium assays in cells follow changes in intracellular calcium, usually with a dye or a luminescent sensor.)
For orientation: IC50 means the concentration needed to halve the response being measured. Consider `CN(CCc1ccc(C2=NCCN2)cc1)C(=O)c1coc(CN(C2CC2)S(=O)(=O)c2ccc(Cl)cc2Cl)n1` [Ex 214, 2-({Cyclopropyl[(2,4-dichlorophenyl)sulfonyl]amino}methyl)-N-{2-[4-(4,5-dihydro-1H-imidazol-2-yl)phenyl]ethyl}-N-methyl-1,3-oxazole-4-carboxamide trifluoroacetate], for which the IC50 lay in the range of 100 to 1000 nM. On to `CN(CCc1ccc(C2=NCCN2)cc1)C(=O)c1coc(CN(C2CC2)S(=O)(=O)c2c(Cl)cc(Cl)cc2Cl)n1` [Ex 215, 2-({Cyclopropyl[(2,4,6-trichlorophenyl)sulfonyl]amino}methyl)-N-{2-[4-(4,5-dihydro-1H-imidazol-2-yl)phenyl]ethyl}-N-methyl-1,3-oxazole-4-carboxamide trifluoroacetate], for which the IC50 lay within 10 to 100 nM. In the case of `CN(Cc1ccc(CN2CCCC2)cc1)C(=O)c1coc(CN(C2CC2)S(=O)(=O)c2c(Cl)cc(Cl)cc2Cl)n1` [Ex 216, 2-({Cyclopropyl[(2,4,6-trichlorophenyl)sulfonyl]amino}methyl)-N-methyl-N-[4-(pyrrolidin-1-ylmethyl)benzyl]-1,3-oxazole-4-carboxamide trifluoroacetate], the IC50 was in the range of 100 to 1000 nM. Take `Cc1cc(S(=O)(=O)N(Cc2nc(C(=O)N(C)CCc3ccc(C4=NCCN4)cc3)co2)C2CC2)c(C)cc1Cl` [Ex 217, 2-({[(4-Chloro-2,5-dimethylphenyl)sulfonyl](cyclopropyl)amino}methyl)-N-{2-[4-(4,5-dihydro-1H-imidazol-2-yl)phenyl]ethyl}-N-methyl-1,3-oxazole-4-carboxamide trifluoroacetate]: the IC50 lay in the range of 100 to 1000 nM.

With `Cc1cc(S(=O)(=O)N(Cc2nc(C(=O)N(C)Cc3ccc(CN4CCCC4)cc3)co2)C2CC2)c(C)cc1Cl` [Ex 218, 2-({[(4-Chloro-2,5-dimethylphenyl)sulfonyl](cyclopropyl)amino}methyl)-N-methyl-N-[4-(pyrrolidin-1-ylmethyl)benzyl]-1,3-oxazole-4-carboxamide trifluoroacetate], the IC50 is 100 to 1000 nM.

As to `Cc1cccc(Cl)c1S(=O)(=O)N(Cc1nc(C(=O)N(C)CCc2ccc(C3=NCCN3)cc2)co1)C1CC1` [Ex 219, 2-({[(2-Chloro-6-methylphenyl)sulfonyl](cyclopropyl)amino}methyl)-N-{2-[4-(4,5-dihydro-1H-imidazol-2-yl)phenyl]ethyl}-N-methyl-1,3-oxazole-4-carboxamide trifluoroacetate], the IC50 lay in the range of 10 to 100 nM. For the compound `Cc1cccc(Cl)c1S(=O)(=O)N(Cc1nc(C(=O)N(C)Cc2ccc(CN3CCCC3)cc2)co1)C1CC1` [Ex 220, 2-({[(2-Chloro-6-methylphenyl)sulfonyl](cyclopropyl)amino}methyl)-N-methyl-N-[4-(pyrrolidin-1-ylmethyl)benzyl]-1,3-oxazole-4-carboxamide trifluoroacetate], the IC50 was in the range of 100 to 1000 nM. `CN(CCc1ccc(C2=NCCN2)cc1)C(=O)c1coc(CN(C2CC2)S(=O)(=O)c2ccccc2C(F)(F)F)n1` [Ex 221, 2-[(Cyclopropyl{[2-(trifluoromethyl)phenyl]sulfonyl}amino)methyl]-N-{2-[4-(4,5-dihydro-1H-imidazol-2-yl)phenyl]ethyl}-N-methyl-1,3-oxazole-4-carboxamide trifluoroacetate]: the IC50 lay in the range of 100 to 1000 nM. For the compound `CN(Cc1ccc(CN2CCCC2)cc1)C(=O)c1coc(CN(C2CC2)S(=O)(=O)c2ccccc2C(F)(F)F)n1` [Ex 222, 2-[(Cyclopropyl{[2-(trifluoromethyl)phenyl]sulfonyl}amino)methyl]-N-methyl-N-[4-(pyrrolidin-1-ylmethyl)benzyl]-1,3-oxazole-4-carboxamide trifluoroacetate], the IC50 lay within 100 to 1000 nM. Regarding `COc1cc(C)c(S(=O)(=O)N(Cc2nc(C(=O)N3CCC(O)(CN4CCN(C)CC4)CC3)co2)C2CC2)c(C)c1` [Ex 223, N-Cyclopropyl-N-{[4-({4-hydroxy-4-[(4-methylpiperazin-1-yl)methyl]piperidin-1-yl}carbonyl)-1,3-oxazol-2-yl]methyl}-4-methoxy-2,6-dimethylbenzenesulfonamide trifluoroacetate], the 50% inhibitory concentration (IC50) is less than 10 nM. As for `COc1cc(C)c(S(=O)(=O)N(Cc2nc(C(=O)N3CCC(O)(CN4CCOCC4)CC3)co2)C2CC2)c(C)c1` [Ex 224, N-Cyclopropyl-N-[(4-{[4-hydroxy-4-(morpholin-4-ylmethyl)piperidin-1-yl]carbonyl}-1,3-oxazol-2-yl)methyl]-4-methoxy-2,6-dimethylbenzenesulfonamide trifluoroacetate], the IC50 was 10 to 100 nM. As to `COc1cc(C)c(S(=O)(=O)N(Cc2nc(C(=O)N(C)Cc3ccc4c(c3)CN(C)C4)co2)C2CC2)c(C)c1` [Ex 225, 2-({Cyclopropyl[(4-methoxy-2,6-dimethylphenyl)sulfonyl]amino}methyl)-N-methyl-N-[(2-methyl-2,3-dihydro-1H-isoindol-5-yl)methyl]-1,3-oxazole-4-carboxamide trifluoroacetate], the IC50 fell in the range of 10 to 100 nM. Regarding `COc1cc(C)c(S(=O)(=O)N(Cc2nc(C(=O)N3CCN(c4cccnc4)CC3)co2)C2CC2)c(C)c1` [Ex 226, N-Cyclopropyl-4-methoxy-2,6-dimethyl-N-({4-[(4-pyridin-3-ylpiperazin-1-yl)carbonyl]-1,3-oxazol-2-yl}methyl)benzenesulfonamide], the IC50 lay within 100 to 1000 nM. Regarding `COc1cc(C)c(S(=O)(=O)N(Cc2nc(C(=O)N3CCN(Cc4ccccn4)CC3)co2)C2CC2)c(C)c1` [Ex 227, N-Cyclopropyl-4-methoxy-2,6-dimethyl-N-[(4-{[4-(pyridin-2-ylmethyl)piperazin-1-yl]carbonyl}-1,3-oxazol-2-yl)methyl]benzenesulfonamide trifluoroacetate], the IC50 was in the range of 100 to 1000 nM. Consider `COc1cc(C)c(S(=O)(=O)N(Cc2nc(C(=O)N3CCN(CCc4ccccn4)CC3)co2)C2CC2)c(C)c1` [Ex 228, N-Cyclopropyl-4-methoxy-2,6-dimethyl-N-[(4-{[4-(2-pyridin-2-ylethyl)piperazin-1-yl]carbonyl}-1,3-oxazol-2-yl)methyl]benzenesulfonamide trifluoroacetate], for which the IC50 lay in the range of 10 to 100 nM. As for `COc1cc(C)c(S(=O)(=O)N(Cc2nc(C(=O)N3CCC(C(=O)N4CCN(C)CC4)CC3)co2)C2CC2)c(C)c1` [Ex 229, N-Cyclopropyl-4-methoxy-2,6-dimethyl-N-{[4-({4-[(4-methylpiperazin-1-yl)carbonyl]piperidin-1-yl}carbonyl)-1,3-oxazol-2-yl]methyl}benzenesulfonamide trifluoroacetate], the figure is 100 to 1000 nM; as for `COc1cc(C)c(S(=O)(=O)N(Cc2nc(C(=O)N3CCN(CC4CCNCC4)CC3)co2)C2CC2)c(C)c1` [Ex 230, N-Cyclopropyl-4-methoxy-2,6-dimethyl-N-[(4-{[4-(piperidin-4-ylmethyl)piperazin-1-yl]carbonyl}-1,3-oxazol-2-yl)methyl]benzenesulfonamide trifluoroacetate], less than 10 nM; as for `COc1cc(C)c(S(=O)(=O)N(Cc2nc(C(=O)N3CCC(c4ccncc4)CC3)co2)C2CC2)c(C)c1` [Ex 231, N-Cyclopropyl-4-methoxy-2,6-dimethyl-N-({4-[(4-pyridin-4-ylpiperidin-1-yl)carbonyl]-1,3-oxazol-2-yl}methyl)benzenesulfonamide], 10 to 100 nM.
